In patent publication US20230138393A1, “LINKING AMINO ACID SEQUENCES, MANUFACTURING METHOD THEREOF, AND USE THEREOF” (priority 2020, published 2023):

How the values were obtained:
DLD-1 cells [1] = assay: Cell penetration assay of FITC-labelled Axin analogues (confocal imaging); assay type: cell-based; details: 10 μM
Experimental: Images were analyzed with NIH ImageJ software.
Cell Penetration Assay: DLD-1 cells were seeded on 35 mm optical dishes at 3e5 per well and were incubated overnight at 37° C./5% CO2. […] Cells were imaged in buffer mimicking the physiological conditions in the cytoplasm (20 mM HEPES, 110 mM KOAc, 5 mM NaOAc, 2 mM MgOAc, 1 mM EGTA, pH 7.3).

DLD-1 cells [2] = details: literature; cited from earlier work

Q: With `CC[C@H](C)[C@@H]1NC(=O)[C@@](C)(NC(=O)[C@H](CCC(N)=O)NC(=O)[C@@H]2CCCN2C(=O)[C@H](Cc2c[nH]c3ccccc23)NC(=O)[C@H](CCCNC(=N)N)NC(=O)COCCOCCNC(=S)Nc2ccc3c(c2)C(=O)OC32c3ccc(O)cc3Oc3cc(O)ccc32)CCCC=CCCC[C@@](C)(C(=O)N[C@@H](Cc2c[nH]cn2)C(=O)N[C@H](C(=O)N[C@@H](CCCNC(=N)N)C(=O)N[C@@H](CCCNC(=N)N)C(=O)N[C@H](C(=O)N[C@@H](Cc2c[nH]c3ccccc23)C(=O)N[C@@H](CCCNC(=N)N)C(N)=O)C(C)C)C(C)C)NC(=O)[C@H](CC(=O)O)NC(=O)[C@H](CC(C)C)NC1=O` [Peptide 51, reference compound] as the compound, how does the “cellular uptake by confocal fluorescence microscopy (in words)” value (DLD-1 cells [1]) read?
A: Its value is “much weaker fluorescence”.

Q: And the “reported cell permeability to DLD-1 cells” value (DLD-1 cells [2])?
A: The value was “limited cell permeability”.
